Laboratory results reported in patent US10301272B2, “Carboxamide or sulfonamide substituted thiazoles and related derivatives as modulators for the orphan nuclear receptor ROR[γ]” (Phenex Pharmaceuticals AG, priority 2012, dated 2019).

These compounds were tested against RORγ (Homo sapiens, UniProt P51449) (assay: RORγ Gal4 Reporter Gene Assay). Details: not given.
Type: cell-based
Description: Determination of a ligand mediated Gal4 promoter driven transactivation to quantify ligand binding to RORγ was performed as follows: DNA encoding three different RORγ protein fragments was cloned into vector pCMV-BD (Stratagene). Expression was under control of a CMV promoter and as fusion to the DNA-binding domain of the yeast protein GAL4. Other vectors used were pFR-Luc (Stratagene) as regulated reporter plasmid. pFR-Luc contains a synthetic promoter with five tandem repeats of the yeast GAL4 binding sites that control expression of the Photinus pyralis (American firefly) luciferase gene. In order to improve experimental accuracy the plasmid pRL-CMV was cotransfected. pRL-CMV contains the constitutive CMV promoter, controlling the expression of the Renilla reniformis luciferase.
The medium is supplemented with 10% fetal bovine serum, 0.1 mM nonessential amino acids, 1 mM sodium pyruvate, 1% Glutamax and 100 units Penicilin/[…] per mL at 37° C. in 5% CO2.
For the assay, […] were plated per well in 96 well plates in 100 μL per well, incubated over night at 37° C. in 5% CO2. […] About 4 h after addition of the transfection solution, fresh Minimal Essential Medium (MEM, same composition as used for plating cells, but without serum) was added. Then compound stocks, prediluted in MEM (same composition as used for plating cells) were added (final vehicle concentration not exceeding 0.1%).
All experiments were done at least in triplicates.

Sequence of RORγ (P51449 whole entry, looked up, the tested form may be a part): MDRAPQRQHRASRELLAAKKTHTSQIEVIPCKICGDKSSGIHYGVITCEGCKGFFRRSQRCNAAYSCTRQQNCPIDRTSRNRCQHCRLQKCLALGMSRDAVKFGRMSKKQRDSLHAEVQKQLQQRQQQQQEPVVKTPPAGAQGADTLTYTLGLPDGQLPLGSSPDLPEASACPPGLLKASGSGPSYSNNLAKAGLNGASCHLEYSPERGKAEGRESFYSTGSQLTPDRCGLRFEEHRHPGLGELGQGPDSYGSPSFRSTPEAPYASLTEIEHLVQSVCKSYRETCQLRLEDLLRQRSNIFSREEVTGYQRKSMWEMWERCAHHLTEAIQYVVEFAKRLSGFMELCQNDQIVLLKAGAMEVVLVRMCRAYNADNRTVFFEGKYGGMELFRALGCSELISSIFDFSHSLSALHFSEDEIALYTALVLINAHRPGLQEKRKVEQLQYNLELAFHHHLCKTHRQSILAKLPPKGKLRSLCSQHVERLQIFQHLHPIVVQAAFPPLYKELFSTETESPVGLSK

Compound	pIC50 (FF)	pIC50 (REN)
CC1CCN(C(=O)c2nc(C(=O)NCC(C)(C)O)sc2-c2ccc(S(=O)(=O)N(CC(F)(F)F)C(C)(C)C)c3ccccc23)CC1 [304/23]	nt/7.5/7.7	nt/7.5/7.7
CC1CCN(C(=O)c2nc(C(=O)NCC(C)(C)O)sc2-c2ccc(S(=O)(=O)NCC(F)(F)F)c3ccccc23)CC1 [304/21]	nt/7.4/7.4	nt/7.4/7.4
CC(C)(C)NS(=O)(=O)c1ccc(-c2oc(C(=O)N3CC4(C3)CS(=O)(=O)C4)nc2CC2CCCCC2)c2ccccc12 [100/24]	nt/7.5/7.7	nt/7.5/7.7
CC(C)(C)NS(=O)(=O)c1ccc(-c2sc(C(=O)N[C@H]3C[C@H](C(=O)O)C3)nc2C2CCCCC2)c2ccccc12 [300/17]	nt/8.0/8.0	nt/8.0/8.0
CC(C)(C)NS(=O)(=O)c1ccc(-c2sc(C(=O)NCC(C)(C)c3nn[nH]n3)nc2CC2CCCCC2)c2ccccc12 [6/59]	nt/7.6/7.8	nt/7.6/7.8
CC1CCN(C(=O)c2nc(C(=O)NCC(C)(C)O)sc2-c2ccc(S(=O)(=O)NC3(C)CC3)c3ccccc23)CC1 [304/27]	nt/7.6/7.5	nt/7.6/7.5
CC1CCN(C(=O)c2nc(C(=O)NCC(C)(C)O)sc2-c2ccc(S(=O)(=O)NC3CCOC3)c3ccccc23)CC1 (stereo not drawn) [304/24]	nt/6.6/6.7	nt/6.6/6.7
CCC(C)(C)NS(=O)(=O)c1ccc(-c2sc(C(=O)NC3CCS(=O)(=O)CC3)nc2C(=O)N2CCC(C)CC2)c(Cl)c1C [Example 301, 5-(2-Chloro-3-methyl-4-(N-(tert-pentyl)sulfamoyl)phenyl)-N-(1,1-dioxidotetrahydro-2H-thiopyran-4-yl)-4-(4-methylpiperidine-1-carbonyl)thiazole-2-carboxamide]	nt/7.8/7.9	nt/7.8/7.9
CC(C)(C)NS(=O)(=O)c1ccc(-c2sc(C(=O)NC3CCS(=O)(=O)CC3)nc2CC2CCC2)c2ccccc12 [21/16]	nt/8.4/8.4	nt/8.4/8.4
CCCc1nc(C(=O)NC2CCS(=O)(=O)CC2)sc1-c1ccc(S(=O)(=O)NC(C)(C)C)c2ccccc12 [300/7]	nt/7.7/7.9	nt/7.7/7.9
CCC(C)(C)NS(=O)(=O)c1ccc(-c2sc(C(=O)N[C@H]3C[C@H](C(=O)O)C3)nc2C(=O)N2CCC(C)CC2)c(Cl)c1C [Example 302, trans-3-(5-(2-Chloro-3-methyl-4-(N-(tert-pentyl)sulfamoyl)phenyl)-4-(4-methylpiperidine-1-carbonyl)thiazole-2-carboxamido)cyclobutanecarboxylic acid]	nt/7.3/7.5	nt/7.3/7.5
CC(C)(C)NS(=O)(=O)c1ccc(-c2nc(C(=O)N[C@H]3C[C@H](C(=O)O)C3)sc2CC2CCCCC2)c2ccccc12 [Example 25/1]	nt/8.9/8.8	nt/8.9/8.8
CC(C)(C)NS(=O)(=O)c1ccc(-c2sc(C(=O)NC3CCS(=O)(=O)CC3)nc2-c2cccc(Cl)c2)c2ccccc12 [300/14]	nt/8.2/8.2	nt/8.2/8.2
CC(C)(C)NS(=O)(=O)c1ccc(-c2sc(C(=O)NCC(C)(C)c3noc(=O)[nH]3)nc2CC2CCCCC2)c2ccccc12 [6/60]	nt/8.5/8.7	nt/8.5/8.7
CC(C)(C)NS(=O)(=O)c1ccc(-c2sc(C(=O)NC3CCS(=O)(=O)CC3)nc2CC2CCC2)c(Cl)c1Cl [21/14]	nt/8.3/8.4	nt/8.3/8.4
CCC(C)(C)NS(=O)(=O)c1ccc(-c2sc(C(=O)NCC(C)(C)O)nc2CC2CCC2)c(OC(F)(F)F)c1 [21/25]	nt/7.7/7.8	nt/7.7/7.8
CC(C)(C)NS(=O)(=O)c1ccc(-c2sc(C(=O)NC3CCS(=O)(=O)CC3)nc2Cc2cccnc2)c2ccccc12 [300/13]	nt/6.4/6.6	nt/6.4/6.6
CC1CCN(C(=O)c2nc(C(=O)N3CC4(CCS(=O)(=O)CC4)C3)oc2-c2ccc(S(=O)(=O)NC(C)(C)C)c3ccccc23)CC1 [Example 306, N-(tert-Butyl)-4-(2-(7,7-dioxido-7-thia-2-azaspiro[3.5]nonane-2-carbonyl)-4-(4-methyl-piperidine-1-carbonyl)oxazol-5-yl)naphthalene-1-sulfonamide]	nt/5.6/5.6	nt/5.6/5.6

Compound	pIC50 (FF)	pIC50 (REN)
CC(C)(C#N)CNC(=O)c1nc(CC2CCCCC2)c(-c2ccc(S(=O)(=O)NC(C)(C)C)c3ccccc23)s1 [6/58]	nt/8.7/8.7	nt/8.7/8.7
CC(C)(C)NS(=O)(=O)c1ccc(-c2sc(C(=O)N3CCC(S(C)(=O)=O)CC3)nc2CC2CCCCC2)c2ccccc12 [6/56]	nt/8.1/8.2	nt/8.1/8.2
C[C@H](NC(=O)c1cc(-c2sc(C(=O)NCC(C)(C)c3nnn[nH]3)nc2CC2CCCCC2)cc(C2(C)CC2)c1)C(F)(F)F [6/62]	nt/7.5/7.5	nt/7.5/7.5
CCC(C)(C)NS(=O)(=O)c1ccc(-c2sc(C(=O)NCC(C)(C)O)nc2C(=O)N2CCC(C)CC2)c(Cl)c1C [Example 301/1]	nt/8.5/8.5	nt/8.5/8.5
Cc1c(-c2sc(C(=O)NC3CCS(=O)(=O)CC3)nc2CC2CCCCC2)cc(Cl)c(S(=O)(=O)NC(C)(C)C)c1Cl [6/63]	nt/9.2/8.9	nt/9.2/8.9
CC1CCN(C(=O)c2nc(C(=O)N3CC4(CCOCC4)C3)sc2-c2ccc(S(=O)(=O)NC(C)(C)C)c3ccccc23)CC1 [304/17]	nt/7.2/7.2	nt/7.2/7.2
CCCc1nc(C(=O)NCC(C)(C)O)sc1-c1ccc(S(=O)(=O)N[C@@H](C)C(F)(F)F)c2ccccc12 [300/9]	nt/7.9/7.9	nt/7.9/7.9
CC1CCN(C(=O)c2nc(C(=O)NCC(C)(C)O)sc2-c2ccc(S(=O)(=O)N3CCCCC3(C)C)c3ccccc23)CC1 [304/25]	nt/8.0/7.6	nt/8.0/7.6
C[C@H](NS(=O)(=O)c1ccc(-c2sc(C(=O)NCC(C)(C)O)nc2CC2CCC(F)(F)CC2)c2ccccc12)C(F)(F)F [21/23]	nt/8.7/8.6	nt/8.7/8.6
CC(C)(O)CNC(=O)c1nc(CC2CCC(F)(F)CC2)c(-c2ccc(S(=O)(=O)NC(C)(C)C)c3ccccc23)s1 [21/11]	nt/8.0/8.2	nt/8.0/8.2
CC1CCN(C(=O)c2nc(C(=O)NCC(C)(C)O)sc2-c2ccc(S(=O)(=O)NCC(C)(C)O)c3ccccc23)CC1 [304/22]	nt/5.8/5.8	nt/5.8/5.8
CN(C(=O)c1nc(CC2CCCCC2)c(-c2cc(C(C)(C)C)cc(C3(C)CC3)c2)s1)C1CCOCC1 [6/52]	nt/6.9/6.9	nt/6.9/6.9
CC(C)(C)NS(=O)(=O)c1ccc(-c2oc(C(=O)NCCC(C)(C)C(=O)O)nc2CC2CCCCC2)c2ccccc12 [100/21]	nt/7.2/7.1	nt/7.2/7.1
CC(C)(C)NS(=O)(=O)c1ccc(-c2sc(C(=O)NC3CCS(=O)(=O)CC3)nc2-c2cccc(C(N)=O)c2)c2ccccc12 [300/16]	nt/6.0/6.1	nt/6.0/6.1
CC(C)(O)CNC(=O)c1nc(CC2CCC2)c(-c2ccc(S(=O)(=O)NC(C)(C)C)cc2OC(F)(F)F)s1 [21/24]	nt/7.5/7.6	nt/7.5/7.6
CC(C)(C)NS(=O)(=O)c1ccc(-c2sc(C(=O)N3CC(S(C)(=O)=O)C3)nc2CC2CCCCC2)c2ccccc12 [6/57]	nt/7.9/8.2	nt/7.9/8.2
C[C@H](NS(=O)(=O)c1ccc(-c2sc(C(=O)NCC(C)(C)O)nc2CC2CCC2)c(Cl)c1)C(F)(F)F [21/19]	nt/7.9/7.9	nt/7.9/7.9

Same assay, conditions: firefly (FF) luciferase, 293T cells

Compound	pIC50 (FF)
CC(C)(C)c1cc(-c2nc(C(=O)N[C@H]3C[C@H](C(=O)O)C3)sc2CC2CCCCC2)cc(C2(C)CC2)c1 [Example 25, trans-3-(4-(3-(tert-Butyl)-5-(1-methylcyclopropyl)phenyl)-5-(cyclohexylmethyl)thiazole-2-carboxamido)cyclobutanecarboxylic acid]	nt/6.1/6.1
CC(C)(C)NS(=O)(=O)c1ccc(-c2sc(C(=O)N[C@H]3C[C@H](C(=O)O)C3)nc2CC2CCCCC2)c2ccccc12 [7/9]	8.7

Same assay, conditions: firefly (FF) luciferase, 293T cells; read-out: pIC50 (FF) (converted)

Compound	IC50 [nM]
CC(C)(C)NS(=O)(=O)c1ccc(-c2sc(C(=O)N[C@H]3C[C@H](C(=O)O)C3)nc2CC2CCC2)c(Cl)c1Cl [21/15]	20
CC(C)(C)c1cc(-c2nc(C(=O)N[C@H]3C[C@H](C(=O)O)C3)oc2CC2CCCCC2)cc(C2(C)CC2)c1 [103/2]	398
CCCc1nc(C(=O)N[C@H]2C[C@H](C(=O)O)C2)sc1-c1ccc(S(=O)(=O)NC(C)(C)C)c2ccccc12 [300/8]	79.4
CC(C)(C)NS(=O)(=O)c1ccc(-c2sc(C(=O)N[C@H]3C[C@H](C(=O)O)C3)nc2CC2CCC2)c2ccccc12 [21/17]	7.94
CC(C)(C)NS(=O)(=O)c1ccc(-c2sc(C(=O)N[C@H]3C[C@H](C(=O)O)C3)nc2CC2CCCCC2)c(OC(F)(F)F)c1 [21/7]	10

Same assay, conditions: renilla normalised (RENnorm) luciferase, 293T cells

Compound	pIC50 (REN)
CC(C)(C)c1cc(-c2nc(C(=O)N[C@H]3C[C@H](C(=O)O)C3)sc2CC2CCCCC2)cc(C2(C)CC2)c1 [Example 25, trans-3-(4-(3-(tert-Butyl)-5-(1-methylcyclopropyl)phenyl)-5-(cyclohexylmethyl)thiazole-2-carboxamido)cyclobutanecarboxylic acid]	nt/6.1/6.1
CC(C)(C)NS(=O)(=O)c1ccc(-c2sc(C(=O)N[C@H]3C[C@H](C(=O)O)C3)nc2CC2CCCCC2)c2ccccc12 [7/9]	9.0

Same assay, conditions: renilla normalised (RENnorm) luciferase, 293T cells; read-out: pIC50 (REN) (converted)

Compound	IC50 [nM]
CC(C)(C)NS(=O)(=O)c1ccc(-c2sc(C(=O)N[C@H]3C[C@H](C(=O)O)C3)nc2CC2CCC2)c(Cl)c1Cl [21/15]	20
CC(C)(C)c1cc(-c2nc(C(=O)N[C@H]3C[C@H](C(=O)O)C3)oc2CC2CCCCC2)cc(C2(C)CC2)c1 [103/2]	251
CCCc1nc(C(=O)N[C@H]2C[C@H](C(=O)O)C2)sc1-c1ccc(S(=O)(=O)NC(C)(C)C)c2ccccc12 [300/8]	63.1
CC(C)(C)NS(=O)(=O)c1ccc(-c2sc(C(=O)N[C@H]3C[C@H](C(=O)O)C3)nc2CC2CCC2)c2ccccc12 [21/17]	6.31
CC(C)(C)NS(=O)(=O)c1ccc(-c2sc(C(=O)N[C@H]3C[C@H](C(=O)O)C3)nc2CC2CCCCC2)c(OC(F)(F)F)c1 [21/7]	6.31
